# The source made the active and inactive calls. No cut-off for these calls is given here.
# Legend:
# SNU-387 = assay: cells; conditions: Homo sapiens, SNU-387, 144 h, read-out: pIC50 (converted)
# Description: Antiproliferative activity against human SNU-387 cells incubated for 6 days by CellTiter-Glo luminescent cell viability assay
# Huh-7 = assay: cells; conditions: Homo sapiens, Huh-7, 144 h, read-out: pIC50 (converted)
# Description: Antiproliferative activity against human Huh-7 cells incubated for 6 days by CellTiter-Glo luminescent cell viability assay
# SNU-423 = assay: cells; conditions: Homo sapiens, SNU-423, 144 h, read-out: pIC50 (converted)
# Description: Antiproliferative activity against human SNU-423 cells incubated for 6 days by CellTiter-Glo luminescent cell viability assay
# HuCCT-1 = assay: cells; conditions: Homo sapiens, HuCCT-1, 144 h, read-out: pIC50 (converted)
# Description: Antiproliferative activity against human HuCCT-1 cells incubated for 6 days by CellTiter-Glo luminescent cell viability assay
# cells [1] = conditions: Homo sapiens, Hep3B, 144 h, read-out: pIC50 (converted)
# Description: Antiproliferative activity against human Hep3B2.1-7 cells incubated for 6 days by CellTiter-Glo luminescent cell viability assay
# SK-HEP1 = assay: cells; conditions: Homo sapiens, SK-HEP1, 144 h, read-out: pIC50 (converted)
# Description: Antiproliferative activity against human SK-HEP1 cells incubated for 6 days by CellTiter-Glo luminescent cell viability assay
# cells [2] = conditions: Homo sapiens, HLF1, 144 h, read-out: pIC50 (converted)
# Description: Antiproliferative activity against human HLF1 cells incubated for 6 days by CellTiter-Glo luminescent cell viability assay
# SNU-398 = assay: cells; conditions: Homo sapiens, SNU-398, 144 h, read-out: pIC50 (converted)
# Description: Antiproliferative activity against human SNU-398 cells incubated for 6 days by CellTiter-Glo luminescent cell viability assay
# HepG2 = assay: cells; conditions: Homo sapiens, HepG2, 144 h, read-out: pIC50 (converted)
# Description: Antiproliferative activity against human HepG2 cells incubated for 6 days by CellTiter-Glo luminescent cell viability assay
# cells [3] = conditions: Homo sapiens, HuH-1, 144 h, read-out: pIC50 (converted)
# Description: Antiproliferative activity against human HuH-1 cells incubated for 6 days by CellTiter-Glo luminescent cell viability assay
# HLE = assay: cells; conditions: Homo sapiens, 144 h, read-out: pIC50 (converted)
# Description: Antiproliferative activity against human HLE cells incubated for 6 days by CellTiter-Glo luminescent cell viability assay
# [4] = molecular target: von Hippel-Lindau disease tumor suppressor/Focal adhesion kinase 1 (Homo sapiens, UniProt Q05397+P40337); assay: Protac activity at VHL/PTK2 in human A549 cells assessed as induction of PTK2 degradation at 1 to 100000 nM incubated for 18 hrs by protein capillary electrophoresis method; assay type: cell-based; conditions: dose 1-100000 nM
# Sequence of von Hippel-Lindau disease tumor suppressor/Focal adhesion kinase 1 (P40337 whole entry partner): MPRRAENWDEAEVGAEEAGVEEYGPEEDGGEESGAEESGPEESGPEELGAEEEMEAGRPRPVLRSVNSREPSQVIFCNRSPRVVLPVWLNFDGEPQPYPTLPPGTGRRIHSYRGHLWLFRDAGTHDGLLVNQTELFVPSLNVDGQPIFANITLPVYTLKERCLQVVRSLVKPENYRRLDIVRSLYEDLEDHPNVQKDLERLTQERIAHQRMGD
# Sequence of von Hippel-Lindau disease tumor suppressor/Focal adhesion kinase 1 (Q05397 2-1052 limits assumed): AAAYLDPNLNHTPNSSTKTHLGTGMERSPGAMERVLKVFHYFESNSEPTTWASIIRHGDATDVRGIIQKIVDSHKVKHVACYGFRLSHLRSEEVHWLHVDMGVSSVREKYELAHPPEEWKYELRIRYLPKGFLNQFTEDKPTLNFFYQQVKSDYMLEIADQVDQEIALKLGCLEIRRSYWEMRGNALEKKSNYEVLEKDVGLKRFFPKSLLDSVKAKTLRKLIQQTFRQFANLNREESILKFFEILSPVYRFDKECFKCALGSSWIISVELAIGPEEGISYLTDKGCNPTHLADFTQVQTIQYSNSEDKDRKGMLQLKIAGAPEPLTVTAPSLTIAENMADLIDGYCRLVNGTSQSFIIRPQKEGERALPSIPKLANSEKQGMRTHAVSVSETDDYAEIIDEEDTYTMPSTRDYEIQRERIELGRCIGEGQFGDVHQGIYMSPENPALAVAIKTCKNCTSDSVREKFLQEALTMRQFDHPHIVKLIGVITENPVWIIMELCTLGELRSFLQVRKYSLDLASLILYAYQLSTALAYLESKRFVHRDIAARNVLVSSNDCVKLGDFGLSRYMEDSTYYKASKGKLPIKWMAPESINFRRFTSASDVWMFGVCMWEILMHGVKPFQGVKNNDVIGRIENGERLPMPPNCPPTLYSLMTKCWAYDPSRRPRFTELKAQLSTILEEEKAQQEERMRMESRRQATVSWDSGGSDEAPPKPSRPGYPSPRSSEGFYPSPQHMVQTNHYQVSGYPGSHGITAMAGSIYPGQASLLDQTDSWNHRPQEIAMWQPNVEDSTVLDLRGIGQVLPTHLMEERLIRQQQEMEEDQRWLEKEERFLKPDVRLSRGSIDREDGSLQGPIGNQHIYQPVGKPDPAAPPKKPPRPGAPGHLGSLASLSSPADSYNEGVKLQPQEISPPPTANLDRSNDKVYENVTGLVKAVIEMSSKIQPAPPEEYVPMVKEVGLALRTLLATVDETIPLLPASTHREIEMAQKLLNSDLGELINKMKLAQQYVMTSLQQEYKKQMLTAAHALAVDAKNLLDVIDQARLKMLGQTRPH
IC50 (SNU-387) [µM],IC50 (Huh-7) [µM],IC50 (SNU-423) [µM],IC50 (HuCCT-1) [µM],IC50 (cells [1]) [µM],IC50 (SK-HEP1) [µM],IC50 (cells [2]) [µM],IC50 (SNU-398) [µM],IC50 (HepG2) [µM],IC50 (cells [3]) [µM],IC50 (HLE) [µM],Activity [4],SMILES
6.31,3.98,3.98,6.31,5.01,6.31,3.98,6.31,3.16,3.98,7.94,–,COc1cc(C(=O)NC2CCN(C)CC2)ccc1Nc1ncc(C(F)(F)F)c(Oc2cccc3c2C(=O)CC3)n1
–,–,–,–,–,–,–,–,–,–,–,inactive,COc1cc(C(=O)NCCOCCOCCOCC(=O)N[C@H](C(=O)N2C[C@@H](O)C[C@H]2C(=O)NCc2ccc(-c3scnc3C)cc2)C(C)(C)C)ccc1Nc1ncc(C(F)(F)F)c(Oc2cccc3c2C(=O)CC3)n1
